{"source": "paper PMC9139167", "about": "“Rational Discovery of Antiviral Whey Protein-Derived Small Peptides Targeting the SARS-CoV-2 Main Protease” (Biomedicines, 2022)", "key": {"3C^pro": {"system": "3C^pro", "settings": "ref [56]; cited from earlier work"}, "DPP-4": {"system": "DPP-4", "settings": "ref [33],[34]; cited from earlier work", "from_the_text": "Recently, we investigated ACE inhibitory activity by peptide sequences, derived from the enzymatic hydrolysis of whey proteins and predicted by molecular docking and related prioritization studies."}, "Gram-positive bacteria": {"system": "Gram-positive bacteria", "settings": "ref [33],[34]; cited from earlier work"}, "SARS-CoV-2 3CL Protease": {"biological_target": "SARS-CoV-2 3CL Protease (Severe acute respiratory syndrome coronavirus 2, UniProt P0DTD1)", "assay": "biochemical"}, "[1]": {"settings": "read-out: Relative Inhibition (RI %)"}}, "note": "Where a SMILES comes first, the peptide text is derived from it. The star is where a group is joined. Cbz = O=C(OCc1ccccc1)*"}
{"molecule": "Cbz-Leu-Phe-Gln-aldehyde [tripeptide aldehydes]", "values": [{"measurement": "inhibitory activity against 3C^pro", "setting": "3C^pro", "result": "poor inhibitory activity"}]}
{"molecule": "IPAVFK", "values": [{"measurement": "DPP-4 inhibitory activity", "setting": "DPP-4", "result": "exhibited DPP-4 inhibitory activity"}, {"measurement": "antimicrobial activity", "setting": "Gram-positive bacteria", "result": "antimicrobial activity against Gram-positive bacteria"}]}
{"molecule": "CC[C@H](C)[C@H](N)C(=O)N[C@@H](C)C(=O)N[C@@H](CCC(=O)O)C(=O)N[C@@H](CCCCN)C(=O)O", "note": "[IAEK] (H-IAEK-OH)", "values": [{"measurement": "IC50", "setting": "SARS-CoV-2 3CL Protease", "result": 154, "unit": "µM"}, {"measurement": "inhibition at 0.036 µM", "setting": "SARS-CoV-2 3CL Protease; [1]", "result": "34.6 ± 1.13", "unit": "%"}, {"measurement": "inhibition at 0.36 µM", "setting": "SARS-CoV-2 3CL Protease; [1]", "result": "40.5 ± 1.26", "unit": "%"}, {"measurement": "inhibition at 3.6 µM", "setting": "SARS-CoV-2 3CL Protease; [1]", "result": "46.5 ± 3.48", "unit": "%"}, {"measurement": "inhibition at 36.6 µM", "setting": "SARS-CoV-2 3CL Protease; [1]", "result": "46.6 ± 3.79", "unit": "%"}, {"measurement": "inhibition at 109.8 µM", "setting": "SARS-CoV-2 3CL Protease; [1]", "result": "49.7 ± 3.16", "unit": "%"}, {"measurement": "inhibition at 183 µM", "setting": "SARS-CoV-2 3CL Protease; [1]", "result": "87.7 ± 1.61", "unit": "%"}, {"measurement": "inhibition at 366 µM", "setting": "SARS-CoV-2 3CL Protease; [1]", "result": "84 ± 3.39", "unit": "%"}]}
